Columns and labels:
[1] = tested on: isolated rabbit urinary bladder; assay: Relaxation effect on potassium-induced contraction of isolated rabbit urinary bladder; assay type: cell-based; conditions: Oryctolagus cuniculus; strips pre-contracted with high-K+ (30 mM) Krebs solution; relaxation as percentage of maximum relaxation by 10^-4 M papaverine; read-out: IC50 value (50% relaxation concentration)
Description: [Relaxation Effect on Potassium-Induced Contraction of Isolated Rabbit Urinary Bladder]
Urinary bladder was isolated from Male NZW rabbits (body weight: 2.0-3.5 kg) and immersed in ice-cold Krebs-bicarbonate solution (in mM: 118 NaCl, 4.7 KCl, 2.55 CaCl2, 1.18 MgSO4, 1.18 KH2PO4, 24.88 NaHCO3 and 11.1 glucose). The urinary bladder was cut into longitudinal strips (5 mm length, 3-4 mm width) after mucosal layer was removed.
Preparations were mounted in organ baths containing 10 ml of Krebs solution maintained at 37° C. and gassed with 95% O2/5% CO2. Accordingly, preparations were stretched with an initial tension of 2.0±1.0 g, and changes in isometric tension were measured by force-displacement transducer. The preparations were pre-contracted by changing organ-bath solution into high-K^+ (30 mM) Krebs solution (in mM: 118 NaCl, […], 2.55 CaCl2, 1.18 MgSO4, 1.18 KH2PO4, 24.88 NaHCO3 and 11.1 glucose).
After stable tension was obtained, compounds were added into organ baths cumulatively (10^−8 M-10^−4 M). The effects of compounds were expressed as a percentage of the maximum relaxation produced by 10^−4 M papaverine as 100%. 50% relaxation concentration (IC50) was calculated and IC50 value range (μM) of compounds of the present invention was shown in the following Table 1 with a rank of A, B or C.
These ranges are as mentioned below.

[2] = tested on: rhythmic bladder contractions induced by substance P; assay: Inhibitory effect on the rhythmic bladder contractions induced by substance P in anesthetized rats; assay type: in vivo, rat; conditions: 0.25 mg/kg, intravenous administration; urethane-anesthetized female Sprague-Dawley rats; observed for 35 minutes

Row | IC50 [1] [nM] | SMILES | 100% inhibition time: Time (min) during which the frequency of the rhythmic contraction had been completely inhibited [2] [min]
1 | 500 to 1000 | Cc1ccc(-c2ncc(Cl)cc2-c2ccc(C(N)=O)cc2)cn1 [Example 1] | 20.5
2 | 500 to 1000 | Cc1ccccc1-c1ncc(Cl)cc1-c1ccc(C(N)=O)cc1 [Example 43] | >35

— patent US20070185116A1, “Bicyclic compounds” (TANABE SEIYAKU CO., LTD., priority 2004, published 2007)
